{"source": "patent US20230220047A1", "about": "“PEPTIDES FOR TREATMENT OF SEPSIS AND CANCER” (NORWEGIAN UNIVERSITY OF SCIENCE AND TECHNOLOGY (NTNU), priority 2020, published 2023)", "key": {"TLR4 [1]": {"test_system": "TLR4", "assay": "ELISA/Bioplex of LPS-mediated cytokine secretion by THP-1 cells", "type": "cell-based, human", "conditions": "for LPS-mediated secretion of IL-18, IL-6, IL-8 and TNF (27-plex Bioplex): 10 μM", "experimental": "(A) Results of LDH assay and ELISAs analysing cytokine secretion after 5 h of stimulation with LPS (graphs show mean values for at least 3 biological replicates). […] In the tables average values are presented based on 3-5 biological replicates for each experiment. […]\nTNF in supernatants was detected using a human TNF-alpha DuoSet ELISA (DY210) (R&D Systems); CXCL10 using a DuoSet ELISA (DY266) (R&D Systems); IL-1β using a BD OptEiA human IL-1β ELISA SetII (#557953, BD Biosciences): IFNβ using a VeriKine-HS™ Human Interferon-Beta Serum ELISA Kit (#41415) from PBL Assay Science. Some supernatants were also analysed by multiplex cytokine assay (Bio-Plex; Bio-Rad Laboratories Inc.) for IL-1β, IL-6, IL-8, CXCL10/IP-10. Results are presented as mean and SD for biological replicates for a representative donor (primary human macrophages), or at least three independent experiments for the model cell line THP-1. Statistical significance was evaluated in GraphPad Prizm 5.03. Data distribution was assumed to be normal but this was not formally tested. The difference between the two groups was determined by two-tailed t test."}, "TLR4 [2]": {"test_system": "TLR4", "assay": "qPCR of TLR4-mediated cytokine expression in B6 immortalised murine macrophages", "type": "cell-based, mouse", "conditions": "10 μM, 1 h pre-treatment, LPS 100 ng/ml", "experimental": "Cells were pre-treated with 10 μM peptides in cell culture media for 1 h, and stimulated with LPS (100 ng/ml) for increasing lengths of time.\nImmortalized bone-derived-macrophages (iBMDM) from wild type, Tram−/− or TIr4−/− C57BL/6 mice were maintained at 37° C. and 5% CO2 in DMEM supplemented with 10% FCS.\n(§1) Total RNA was isolated from the cells using Qiazol reagent #79306 from QIAGEN, and chloroform extraction followed by purification on RNeasy Mini columns with DNAse digestion (Qiagen). cDNA was prepared using the Maxima First Strand cDNA Synthesis Kit for quantitative real-time polymerase chain reaction (RT-qPCR) (Thermo Fisher Scientific) according to the manufacturer's protocol. qPCR was performed using the PerfeCTa qPCR FastMix (Quanta Biosciences) in replicates and cycled in a StepOnePlus™ Real-Time PCR cycler. The following TaqMan® Gene Expression Assays (Applied Biosystems®) were used: IFNβ (Hs01077958_s1), TNF (Hs00174128_m1), TBP (Hs00427620_m1), CXCL10 (Hs01124251_g1), IL-6 (Hs00174131_m1) and IL-1β (Hs01555410_m1), for human cells; Ifnβ (Mm00439552_s1), Tnf (Mm00443258_m1), Tbp (Mm01277042_m1) and II-1β (Mm00434228_m1), for mouse cells. No RT controls were negative. The level of TBP mRNA was used for normalisation and results presented as relative expression compared to the control untreated sample. Relative expression was calculated using Pfaffl's mathematical model (Pfaffl, Nucleic Acids Research 29(9): e45, 2001). Results are presented as the mean and SD expression fold change for biological replicates relative to non-stimulated cells. Statistical significance was evaluated in GraphPad Prizm 5.03. Data distribution was assumed to be normal but this was not formally tested. The difference between the two groups was determined by two-tailed t test.\nWe proceeded with cellular assays to address the effect of peptide pre-treatment on TLR4-mediated cytokine expression in B6 immortalised murine macrophages (FIG. 13). Tested peptides had no cytotoxic effect on B6 murine macrophages (FIG. 13A)."}, "[3]": {"test_system": "primary Vk*MYC multiple myeloma cells", "assay": "Primary Vk*MYC multiple myeloma cells", "type": "cell-based, mouse", "conditions": "7.5 or 15 μM, 48 h", "experimental": "Isolated primary cells were seeded then incubated for 48 hours in growth medium supplemented with water, penetratin, P7-Pen, P7-A4-Pen or P7-N4-Pen, then counted. Peptides were included at concentrations of 7.5 or 15 μM. […] Results are based on 3 biological replicates, error bars show standard deviation of mean.\nMultiple myeloma cells JJN-3 (DSMZ (Germany) no. ACC 541), ANBL-6 (Cellosaurus accession number CVCL_5425, obtained from Dr Diane Jelinek, Mayo Clinic, Rochester, Minn.), INA-6 (Cellosaurus accession number CVCL_5209, obtained from Dr M. Gramatzki, University of Erlangen-Nurnberg, Erlangen, Germany), RPMI-8226 (ATCC CCL-155), and IH-1 (Cellosaurus accession number CVCL_WZ44, established from the pleural effusion of a myeloma patient by Myeloma research group, IKOM, NTNU, Trondheim, Norway) were grown in RPMI-1640 (Sigma-Aldrich Norway, Oslo, Norway) supplemented with 100 nM penicillin/streptomycin and 10% FCS, and for ANBL-6, IH-1 and INA-6 cells 2 ng/ml recombinant IL-6 (Gibco, Thermo Fisher Scientific, Waltham, Mass., USA). Murine multiple myeloma Vk*MYC cells were obtained from M.D. Leif Bergsagel (Mayo Clinic, Richester, Minn., USA) and cultured in RPMI-1640 supplemented with 2% human serum (B^+, The blood bank, St Olav's Hospital, Trondheim, Norway), 100 nM penicillin/streptomycin, L-Glutamine (2 mM) and recombinant IL-6 (1 ng/ml). HEK293T (ATCC CRL-3216) were cultured in DMEM with 10% FCS. THP-1 TRAM knockout (KO) and TLR4 KO cell lines, and matching lentivirally transduced control cell lines, were differentiated in the same way as wild type (WT) THP-1. TRAM KO THP-1 cell line is described in Yurchenko et al. (supra).\nPrimary multiple myeloma cells were isolated from Vk*Myc mice and provided by the Multiple Myeloma Research Group, IKOM, NTNU. The peptides P7-Pen, P7-N4-Pen and P7-A4-Pen were applied to the cultured primary cells and effect of the peptides on cell growth analysed as previously."}, "TLR4 [4]": {"test_system": "TLR4", "assay": "qPCR of LPS-mediated cytokine mRNA expression in THP-1 macrophages", "type": "cell-based, human", "conditions": "for IFNβ and CXCL10 mRNA expression: 30 min pre-treatment, LPS", "experimental": "SW480 (ATCC CCL-228) and Jurkat (ATCC Clone E6-1; TIB-152) cells were cultured in RPMI 1640 (Sigma-Aldrich, Schnelldorf, Germany) supplemented with 10% heat-inactivated FCS, penicillin/streptomycin (Life Technologies) and 20 mM L-Glutamine. THP-1 cells (ATCC TIB-202) were cultured in RPMI-1640 (high-glucose, ATCC) supplemented with 10% heat inactivated foetal calf serum (FCS), 100 nM penicillin/streptomycin and 5 μM β-mercaptoethanol (Sigma). THP-1 cells were differentiated with 60 ng/ml phorbol 12-myristate 13-acetate (PMA, Sigma) for 72 h, followed by 24 or 48 h in medium without PMA.\nas §1"}}}
{"substance": "Ac-ITVAASVTLTGRQIKIWFQNRRMKWKK-NH2 [Peptide P7-A4-Pen]", "values": [{"measurement": "inhibitory activity towards LPS-induced CXCL10, TNF and IL-1β secretion (ELISA)", "setting": "TLR4 [1]; 15 μM, 30 min pre-treatment, LPS 100 ng/ml 5 h, relative to P7-Pen", "value": "least effect on peptide activity"}, {"measurement": "TLR4-mediated Ifnβ, Tnf and Il-1β mRNA expression", "setting": "TLR4 [2]", "value": "strongly inhibited"}, {"measurement": "effect on primary multiple myeloma cells", "setting": "[3]", "value": "strong cytotoxic effect"}]}
{"substance": "Ac-ITVYASVTLTGRQIKIWFQNRRMKWKK-NH2 [Peptide P7-Pen]", "values": [{"measurement": "inhibition of CXCL10 secretion", "setting": "TLR4 [1]; 10 μM applied 30 min before or simultaneously with LPS, LPS 6 h", "value": "very effective"}, {"measurement": "inhibitory effect on CXCL10 secretion", "setting": "TLR4 [1]; 10 μM applied 1 h after addition of LPS", "value": "reduced"}, {"measurement": "LPS-mediated secretion of IL-18, IL-6, IL-8 and TNF (27-plex Bioplex)", "setting": "TLR4 [1]; 30 min pre-treatment", "value": "inhibitory effect"}, {"measurement": "IFNβ and CXCL10 mRNA expression", "setting": "TLR4 [4]; 10 μM", "value": "reduced"}, {"measurement": "TLR4-mediated Ifnβ, Tnf and Il-1β mRNA expression", "setting": "TLR4 [2]", "value": "strongly inhibited"}, {"measurement": "effect on primary multiple myeloma cells", "setting": "[3]", "value": "strong cytotoxic effect"}]}
{"substance": "Ac-ITVYASVTLTGRRRRRRRRRRR-NH2 [Peptide P7-Arg11]", "values": [{"measurement": "LPS-mediated secretion of IL-18, IL-6, IL-8 and TNF (27-plex Bioplex)", "setting": "TLR4 [1]; 30 min pre-treatment", "value": "inhibitory effect"}, {"measurement": "LPS-mediated TNF secretion (ELISA)", "setting": "TLR4 [1]; not shown", "value": "prevented TNF secretion"}, {"measurement": "IFNβ and CXCL10 mRNA expression", "setting": "TLR4 [4]; 10 μM", "value": "reduced"}, {"measurement": "LPS-mediated IFNβ, CXCL10 and TNF expression", "setting": "TLR4 [4]; 10 μM, 1 h pre-treatment, LPS 100 ng/ml", "value": "clear inhibitory effect"}, {"measurement": "expression of IFNβ, CXCL10 and TNF mRNA", "setting": "TLR4 [4]; 20 μM, 1 h pre-treatment, LPS 100 ng/ml", "value": "totally inhibited"}, {"measurement": "LPS-induced cytokine expression levels (IFNβ, TNF and CXCL10 mRNA)", "setting": "TLR4 [4]; peptide removed from media after pre-treatment, before LPS stimulation (data not shown)", "value": "No changes"}]}
